Assay [1] has as its target T1, cGMP-dependent protein kinase 2 (Homo sapiens) (UniProt Q13237).
T1 sequence (whole entry): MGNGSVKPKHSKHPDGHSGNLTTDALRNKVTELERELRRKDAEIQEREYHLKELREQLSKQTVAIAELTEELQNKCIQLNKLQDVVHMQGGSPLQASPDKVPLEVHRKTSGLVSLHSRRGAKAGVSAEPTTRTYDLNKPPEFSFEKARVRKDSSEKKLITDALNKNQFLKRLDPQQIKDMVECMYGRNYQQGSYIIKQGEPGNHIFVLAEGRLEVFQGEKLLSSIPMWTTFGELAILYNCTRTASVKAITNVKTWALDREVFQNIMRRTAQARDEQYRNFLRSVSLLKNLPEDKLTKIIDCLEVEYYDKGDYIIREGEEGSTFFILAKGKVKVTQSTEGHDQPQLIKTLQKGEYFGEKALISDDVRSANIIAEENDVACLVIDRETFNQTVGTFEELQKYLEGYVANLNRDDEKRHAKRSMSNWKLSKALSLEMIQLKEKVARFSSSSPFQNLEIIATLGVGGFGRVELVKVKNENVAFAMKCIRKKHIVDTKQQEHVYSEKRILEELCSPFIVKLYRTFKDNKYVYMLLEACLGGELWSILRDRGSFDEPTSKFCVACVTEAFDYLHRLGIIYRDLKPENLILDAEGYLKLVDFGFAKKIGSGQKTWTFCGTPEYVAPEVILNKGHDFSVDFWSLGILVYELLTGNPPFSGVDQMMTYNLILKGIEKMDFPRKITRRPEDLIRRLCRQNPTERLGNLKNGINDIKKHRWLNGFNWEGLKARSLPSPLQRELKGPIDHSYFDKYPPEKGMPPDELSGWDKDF
As to the kind of experiment: Residual activity of PRKG2 at 10 uM by microplate scintillation counting.

Assay [2] addresses T2, Serine/threonine-protein kinase DCLK2 (Homo sapiens) (UniProt Q8N568).
T2 sequence (whole entry): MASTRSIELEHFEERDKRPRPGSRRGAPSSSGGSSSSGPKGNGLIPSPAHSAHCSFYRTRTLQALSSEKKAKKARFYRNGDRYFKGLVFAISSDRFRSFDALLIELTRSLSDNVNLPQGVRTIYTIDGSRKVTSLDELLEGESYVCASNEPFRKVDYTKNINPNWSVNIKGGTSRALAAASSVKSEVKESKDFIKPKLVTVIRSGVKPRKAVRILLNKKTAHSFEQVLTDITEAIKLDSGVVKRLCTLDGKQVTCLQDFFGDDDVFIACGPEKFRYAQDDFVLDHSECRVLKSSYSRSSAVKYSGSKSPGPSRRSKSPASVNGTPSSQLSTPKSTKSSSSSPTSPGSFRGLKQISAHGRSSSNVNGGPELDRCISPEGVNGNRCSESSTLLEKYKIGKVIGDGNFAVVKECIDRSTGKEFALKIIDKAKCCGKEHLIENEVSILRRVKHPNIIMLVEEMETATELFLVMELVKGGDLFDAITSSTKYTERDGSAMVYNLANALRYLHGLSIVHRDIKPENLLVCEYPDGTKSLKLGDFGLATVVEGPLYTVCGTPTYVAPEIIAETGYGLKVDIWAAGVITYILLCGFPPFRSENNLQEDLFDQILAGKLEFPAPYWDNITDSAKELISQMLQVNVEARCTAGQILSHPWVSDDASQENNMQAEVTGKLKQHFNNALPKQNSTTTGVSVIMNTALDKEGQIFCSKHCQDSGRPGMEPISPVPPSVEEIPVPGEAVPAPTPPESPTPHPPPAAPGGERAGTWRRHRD
Kind of assay: Residual activity of DCAMKL2 at 1 uM by microplate scintillation counting.

Assay [3] relates to T3, Dual specificity mitogen-activated protein kinase kinase 6 (Homo sapiens), P52564 [S207D,T211D].
T3 sequence (whole entry): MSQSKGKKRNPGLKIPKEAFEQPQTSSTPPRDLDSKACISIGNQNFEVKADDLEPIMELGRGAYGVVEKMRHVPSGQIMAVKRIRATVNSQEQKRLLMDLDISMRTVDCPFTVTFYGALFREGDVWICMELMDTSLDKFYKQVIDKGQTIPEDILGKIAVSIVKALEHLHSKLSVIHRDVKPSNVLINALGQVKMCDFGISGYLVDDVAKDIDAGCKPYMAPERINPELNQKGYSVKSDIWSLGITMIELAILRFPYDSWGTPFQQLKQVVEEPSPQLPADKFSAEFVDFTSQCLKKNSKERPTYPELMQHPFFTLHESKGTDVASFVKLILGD
As to the kind of experiment: Residual activity of MKK6 S207D/T211D mutant at 1 uM by microplate scintillation counting.

Assay [4] deals with Tyrosine-protein kinase Blk (Homo sapiens) (UniProt P51451). Kind of assay: Residual activity of BLK at 1 uM by microplate scintillation counting.
Assay [5] concerns the target T4, Dual specificity protein kinase TTK (Homo sapiens) (UniProt P33981).
T4 sequence (whole entry): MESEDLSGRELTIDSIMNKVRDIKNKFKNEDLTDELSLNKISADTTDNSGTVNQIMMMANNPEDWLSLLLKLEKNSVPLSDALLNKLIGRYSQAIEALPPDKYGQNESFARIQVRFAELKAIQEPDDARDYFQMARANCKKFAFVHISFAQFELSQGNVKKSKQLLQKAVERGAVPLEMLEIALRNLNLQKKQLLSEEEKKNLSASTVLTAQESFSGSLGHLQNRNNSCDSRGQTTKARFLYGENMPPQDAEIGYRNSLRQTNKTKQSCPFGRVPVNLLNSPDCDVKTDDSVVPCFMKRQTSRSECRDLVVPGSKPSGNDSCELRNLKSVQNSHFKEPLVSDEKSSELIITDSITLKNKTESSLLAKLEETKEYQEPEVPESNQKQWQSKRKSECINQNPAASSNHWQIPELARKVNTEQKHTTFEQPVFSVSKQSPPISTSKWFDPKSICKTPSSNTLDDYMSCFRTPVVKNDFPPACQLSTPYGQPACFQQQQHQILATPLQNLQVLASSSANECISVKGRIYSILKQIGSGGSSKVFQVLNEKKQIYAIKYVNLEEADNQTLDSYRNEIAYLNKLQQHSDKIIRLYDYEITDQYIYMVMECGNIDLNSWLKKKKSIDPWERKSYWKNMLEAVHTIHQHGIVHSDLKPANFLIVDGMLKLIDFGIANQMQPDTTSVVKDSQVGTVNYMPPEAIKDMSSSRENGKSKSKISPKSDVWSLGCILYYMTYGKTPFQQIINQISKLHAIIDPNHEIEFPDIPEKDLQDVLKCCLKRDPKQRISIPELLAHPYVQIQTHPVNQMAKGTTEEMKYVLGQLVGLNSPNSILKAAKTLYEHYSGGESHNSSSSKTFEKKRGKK
As to the kind of experiment: Residual activity of TTK at 0.1 uM by microplate scintillation counting.

Assay [6] addresses Death-associated protein kinase 1 (Homo sapiens) (UniProt P53355). As to the kind of experiment: Residual activity of DAPK1 at 0.1 uM by microplate scintillation counting.
Assay [7] addresses Serine/threonine-protein kinase PAK 2 (Homo sapiens) (UniProt Q13177). Kind of assay: Residual activity of PAK2 at 1 uM by microplate scintillation counting.

Death-associated protein kinase 1 (Homo sapiens), sequence (P53355 whole entry, looked up): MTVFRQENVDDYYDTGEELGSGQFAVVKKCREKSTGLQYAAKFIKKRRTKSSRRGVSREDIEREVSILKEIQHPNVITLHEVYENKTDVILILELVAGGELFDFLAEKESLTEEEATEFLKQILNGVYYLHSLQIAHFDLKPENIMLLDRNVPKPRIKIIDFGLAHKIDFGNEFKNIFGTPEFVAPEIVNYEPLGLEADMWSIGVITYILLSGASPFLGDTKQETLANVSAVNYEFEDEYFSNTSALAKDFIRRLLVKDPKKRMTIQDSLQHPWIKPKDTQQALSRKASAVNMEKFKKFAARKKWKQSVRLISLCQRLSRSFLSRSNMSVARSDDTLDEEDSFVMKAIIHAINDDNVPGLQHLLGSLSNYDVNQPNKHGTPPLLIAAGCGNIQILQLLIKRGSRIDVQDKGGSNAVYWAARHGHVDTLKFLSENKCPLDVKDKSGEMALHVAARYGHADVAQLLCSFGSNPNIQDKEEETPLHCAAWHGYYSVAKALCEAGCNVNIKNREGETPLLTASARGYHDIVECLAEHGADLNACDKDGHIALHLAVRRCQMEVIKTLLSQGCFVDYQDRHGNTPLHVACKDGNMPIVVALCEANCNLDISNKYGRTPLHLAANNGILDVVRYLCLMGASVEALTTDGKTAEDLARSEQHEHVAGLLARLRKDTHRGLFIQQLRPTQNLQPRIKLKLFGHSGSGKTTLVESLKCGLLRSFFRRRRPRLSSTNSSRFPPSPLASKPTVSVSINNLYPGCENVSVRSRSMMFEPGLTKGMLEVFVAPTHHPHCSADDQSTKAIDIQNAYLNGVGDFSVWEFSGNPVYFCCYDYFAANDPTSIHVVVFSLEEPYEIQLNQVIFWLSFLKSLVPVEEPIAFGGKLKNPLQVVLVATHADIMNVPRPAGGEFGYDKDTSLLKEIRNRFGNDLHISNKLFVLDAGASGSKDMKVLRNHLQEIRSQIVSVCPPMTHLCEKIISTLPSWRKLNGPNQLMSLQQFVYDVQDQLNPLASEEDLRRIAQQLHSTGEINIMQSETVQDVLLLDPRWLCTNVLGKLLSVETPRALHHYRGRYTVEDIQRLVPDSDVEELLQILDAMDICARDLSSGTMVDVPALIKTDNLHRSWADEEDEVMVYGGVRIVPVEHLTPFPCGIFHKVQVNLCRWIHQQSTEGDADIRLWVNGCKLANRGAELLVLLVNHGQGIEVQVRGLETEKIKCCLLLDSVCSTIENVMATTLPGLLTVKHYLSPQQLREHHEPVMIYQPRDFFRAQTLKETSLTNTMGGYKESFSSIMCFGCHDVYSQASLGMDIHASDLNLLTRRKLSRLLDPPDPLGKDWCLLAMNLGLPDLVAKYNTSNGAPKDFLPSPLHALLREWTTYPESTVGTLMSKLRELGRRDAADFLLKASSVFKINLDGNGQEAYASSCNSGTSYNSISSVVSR
Tyrosine-protein kinase Blk (Homo sapiens), sequence (P51451 2-505 limits assumed): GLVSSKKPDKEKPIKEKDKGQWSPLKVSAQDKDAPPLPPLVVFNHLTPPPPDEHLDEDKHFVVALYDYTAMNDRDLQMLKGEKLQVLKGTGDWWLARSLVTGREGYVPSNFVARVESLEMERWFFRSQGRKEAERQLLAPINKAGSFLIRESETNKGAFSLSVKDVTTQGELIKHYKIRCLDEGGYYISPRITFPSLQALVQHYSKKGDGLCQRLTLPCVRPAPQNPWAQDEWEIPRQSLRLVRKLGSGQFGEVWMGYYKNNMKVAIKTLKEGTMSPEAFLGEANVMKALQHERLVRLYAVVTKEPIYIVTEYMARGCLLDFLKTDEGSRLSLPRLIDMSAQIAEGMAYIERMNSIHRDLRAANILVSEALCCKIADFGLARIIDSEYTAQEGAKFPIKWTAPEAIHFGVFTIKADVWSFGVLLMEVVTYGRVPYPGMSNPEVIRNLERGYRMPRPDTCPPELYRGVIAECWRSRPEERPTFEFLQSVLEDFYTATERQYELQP
Serine/threonine-protein kinase PAK 2 (Homo sapiens), sequence (Q13177 whole entry): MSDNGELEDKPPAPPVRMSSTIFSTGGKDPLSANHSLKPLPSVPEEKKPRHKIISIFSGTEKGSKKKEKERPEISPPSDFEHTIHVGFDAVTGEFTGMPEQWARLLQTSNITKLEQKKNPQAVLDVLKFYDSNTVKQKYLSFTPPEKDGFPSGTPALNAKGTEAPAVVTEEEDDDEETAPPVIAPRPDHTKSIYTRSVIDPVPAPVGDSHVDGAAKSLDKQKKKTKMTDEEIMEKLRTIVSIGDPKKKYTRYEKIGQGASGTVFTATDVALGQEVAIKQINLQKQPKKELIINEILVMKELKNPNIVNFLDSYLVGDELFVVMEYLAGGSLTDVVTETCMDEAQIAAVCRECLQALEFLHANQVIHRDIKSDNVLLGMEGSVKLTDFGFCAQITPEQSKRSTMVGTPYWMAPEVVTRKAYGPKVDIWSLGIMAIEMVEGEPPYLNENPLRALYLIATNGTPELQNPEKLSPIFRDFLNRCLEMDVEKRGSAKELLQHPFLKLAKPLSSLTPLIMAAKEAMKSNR

Turning to `COc1cc2c(Oc3ccc(-c4nc5ccccc5s4)cc3)ncnc2cc1OCCCN1CCCC1`, the residual activity in assay [1] came to 92%; in assay [2], 71%; in assay [3], 100%; in assay [4] it was 64%; in assay [5], 99%; in assay [6] it was 86%. Also, in assay [7], the residual activity was determined as 102%.
For `COc1cc2c(Oc3ccc(-c4nc5ccccc5s4)cc3F)ncnc2cc1OCCCN1CCN(C)CC1`, the residual activity in assay [1] worked out at 96%; in assay [2] it was 76%; in assay [3] it was 103%; in assay [4], 58%; in assay [5], 82%; in assay [6], 80%. Moreover, the residual activity in assay [7] came out at 103%.
Take `COc1cc2c(Oc3ccc(-c4nc5ccccc5s4)cc3)ncnc2cc1OCCCN1CCN(C)CC1`: the residual activity in assay [1] turned out to be 119%; in assay [2] it was 80%; in assay [3], 84%; in assay [4], 63%; in assay [5], 89%; in assay [6] it was 73%. In assay [7], the residual activity worked out at 124%.
